The numbers were not newly measured in patent US20150338392A1, “Sterile and instantly dissolvable drug membrane and method thereof for testing drug sensitivity of antineoplastic drugs” (priority 2013, published 2015), which cites them from elsewhere.

Series [1] has as its system non-small cell lung cancer. The settings on record: clinical, background statement.
The subject of another series is invasive breast cancer. The settings on record: clinical, background statement.

With `Nc1ccn([C@@H]2O[C@H](CO)[C@@H](O)C2(F)F)c(=O)n1` [Gemzar], the “patients who receive no obvious effect” value in series [1] is on record as “more than 60%”.

`COc1cccc2c1C(=O)c1c(O)c3c(c(O)c1C2=O)C[C@@](O)(C(=O)CO)C[C@@H]3O[C@H]1C[C@H](N)[C@H](O)[C@H](C)O1` [doxorubicin]: the “invasive breast cancer patients who are not sensitive to the drug” value in the series with invasive breast cancer is recorded as 50%.
